Measurements as given in patent US20100069317A1, “CRYSTALLINE NEMORUBICIN HYDROCHLORIDE” (NERVIANO MEDICAL SCIENCES S.R.L., priority 2006, published 2010).

Assays:
[1] = Hygroscopicity, dynamic water vapour sorption (DVS 1000); type: physicochemical; details: for Change In Mass (%): 25° C.; for hygroscopicity (in words): when exposed to humidity
Procedure: Hygroscopicity tests were performed by means of a DVS 1000 apparatus (SMS) allowing dynamic water vapour sorption analysis. Multiple sorption/desorption cycles between 0% and 90% RH were performed at 25° C.
The equipment is a “controlled atmosphere microbalance” where the weighed sample is exposed to controlled variations of the relative humidity (RH) at a constant temperature.

[2] = test system: experimental tumors (animal models); details: cited from earlier work
[3] = in the presence of mouse, rat and human liver microsomes; cited from earlier work
[4] = test system: tumor cells resistant to alkylating agents or topoisomerase II inhibitors; details: cells resistant to alkylating agents (melphalan, cisplatin) or topoisomerase II inhibitors (etoposide); cited from earlier work
[5] = test system: liver metastases from M5076 murine fibrosarcoma; details: oral administration; cited from earlier work

Compound: COc1cccc2c1C(=O)c1c(O)c3c(c(O)c1C2=O)C[C@@](O)(C(=O)CO)C[C@@H]3O[C@H]1C[C@H](N2CCO[C@H](OC)C2)[C@H](O)[C@H](C)O1.Cl [Form A, nemorubicin hydrochloride dihydrate]
- Change In Mass (%) ([1]; Relative Humidity 0.0%): 0.00%
- Change In Mass (%) ([1]; Relative Humidity 3.1%, hydrochloride dihydrate): 1.92%
- Change In Mass (%) ([1]; Relative Humidity 6.2%, hydrochloride dihydrate): 3.53%
- Change In Mass (%) ([1]; Relative Humidity 9.3%, hydrochloride dihydrate): 3.82%
- Change In Mass (%) ([1]; Relative Humidity 12.4%, hydrochloride dihydrate): 4.02%
- Change In Mass (%) ([1]; Relative Humidity 15.5%, hydrochloride dihydrate): 4.17%
- Change In Mass (%) ([1]; Relative Humidity 18.6%, hydrochloride dihydrate): 4.29%
- Change In Mass (%) ([1]; Relative Humidity 21.7%, hydrochloride dihydrate): 4.39%
- Change In Mass (%) ([1]; Relative Humidity 24.8%, hydrochloride dihydrate): 4.49%
- Change In Mass (%) ([1]; Relative Humidity 27.9%, hydrochloride dihydrate): 4.57%
- Change In Mass (%) ([1]; Relative Humidity 31.0%, hydrochloride dihydrate): 4.65%
- Change In Mass (%) ([1]; Relative Humidity 34.1%, hydrochloride dihydrate): 4.71%
- Change In Mass (%) ([1]; Relative Humidity 37.2%, hydrochloride dihydrate): 4.77%
- Change In Mass (%) ([1]; Relative Humidity 40.3%, hydrochloride dihydrate): 4.82%
- Change In Mass (%) ([1]; Relative Humidity 43.5%, hydrochloride dihydrate): 4.86%
- Change In Mass (%) ([1]; Relative Humidity 46.6%, hydrochloride dihydrate): 4.91%
- Change In Mass (%) ([1]; Relative Humidity 49.7%, hydrochloride dihydrate): 4.95%
- Change In Mass (%) ([1]; Relative Humidity 52.8%, hydrochloride dihydrate): 5.01%
- Change In Mass (%) ([1]; Relative Humidity 55.9%, hydrochloride dihydrate): 5.07%
- Change In Mass (%) ([1]; Relative Humidity 59.0%, hydrochloride dihydrate): 5.13%
- Change In Mass (%) ([1]; Relative Humidity 62.1%, hydrochloride dihydrate): 5.19%
- Change In Mass (%) ([1]; Relative Humidity 65.2%, hydrochloride dihydrate): 5.25%
- Change In Mass (%) ([1]; Relative Humidity 68.3%, hydrochloride dihydrate): 5.31%
- Change In Mass (%) ([1]; Relative Humidity 71.4%, hydrochloride dihydrate): 5.38%
- Change In Mass (%) ([1]; Relative Humidity 74.5%, hydrochloride dihydrate): 5.46%
- Change In Mass (%) ([1]; Relative Humidity 77.6%, hydrochloride dihydrate): 5.52%
- Change In Mass (%) ([1]; Relative Humidity 80.7%, hydrochloride dihydrate): 5.58%
- Change In Mass (%) ([1]; Relative Humidity 83.8%, hydrochloride dihydrate): 5.66%
- Change In Mass (%) ([1]; Relative Humidity 86.9%, hydrochloride dihydrate): 5.75%
- Change In Mass (%) ([1]; Relative Humidity 90.0%, hydrochloride dihydrate): 5.85%
- RH at which the two moles of water lost on desorption are re-adsorbed ([1]; after a desorption cycle): 30%
- change in mass ([1]; at about 55% RH): about 5%
- hygroscopicity (in words) ([1]; hydrochloride dihydrate): non hygroscopic

Compound: COc1cccc2c1C(=O)c1c(O)c3c(c(O)c1C2=O)C[C@@](O)(C(=O)CO)C[C@@H]3O[C@H]1C[C@H](N2CCO[C@H](OC)C2)[C@H](O)[C@H](C)O1 [nemorubicin, 3′ des amino-3′ [2(S)methoxy-4-morpholinyl] doxorubicin]
- optimal i.v. dose, fold less than that of doxorubicin ([2]; i.v., in vivo): at least 80 fold
- oral doses giving antitumor activity comparable to i.v., fold higher than the effective i.v. doses ([2]; oral vs i.v., all the animal models examined): 1.3-2 fold
- cytotoxic activity in vitro [3]: increased
- cross-resistance [4]: no cross-resistance was observed
- survival time (best result) [5]: doubling of survival time

Compound: COc1cccc2c1C(=O)c1c(O)c3c(c(O)c1C2=O)C[C@@](O)(C(=O)CO)C[C@@H]3O[C@H]1C[C@H](N2CCO[C@H](OC)C2)[C@H](O)[C@H](C)O1.Cl [Amorphous, (8S-cis,2″S)-7,8,9,10-tetrahydro-6,8,11-trihydroxy-8-(hydroxyacetyl)-1-methoxy-10-{[2,3,6-trideoxy-3-(2-methoxy-4-morpholinyl)-α-L-lyxo-hexopyranosyl]oxy}-5,12-naphthacenedione hydrochloride]
- Change In Mass (%) ([1]; Relative Humidity 3.1%, hydrochloride): 0.30%
- Change In Mass (%) ([1]; Relative Humidity 6.2%, hydrochloride): 0.83%
- Change In Mass (%) ([1]; Relative Humidity 9.3%, hydrochloride): 1.35%
- Change In Mass (%) ([1]; Relative Humidity 12.4%, hydrochloride): 1.93%
- Change In Mass (%) ([1]; Relative Humidity 15.5%, hydrochloride): 2.45%
- Change In Mass (%) ([1]; Relative Humidity 18.6%, hydrochloride): 2.92%
- Change In Mass (%) ([1]; Relative Humidity 21.7%, hydrochloride): 3.37%
- Change In Mass (%) ([1]; Relative Humidity 24.8%, hydrochloride): 3.79%
- Change In Mass (%) ([1]; Relative Humidity 27.9%, hydrochloride): 4.19%
- Change In Mass (%) ([1]; Relative Humidity 31.0%, hydrochloride): 4.62%
- Change In Mass (%) ([1]; Relative Humidity 34.1%, hydrochloride): 5.08%
- Change In Mass (%) ([1]; Relative Humidity 37.2%, hydrochloride): 5.52%
- Change In Mass (%) ([1]; Relative Humidity 40.3%, hydrochloride): 5.96%
- Change In Mass (%) ([1]; Relative Humidity 43.5%, hydrochloride): 6.43%
- Change In Mass (%) ([1]; Relative Humidity 46.6%, hydrochloride): 6.90%
- Change In Mass (%) ([1]; Relative Humidity 49.7%, hydrochloride): 7.37%
- Change In Mass (%) ([1]; Relative Humidity 52.8%, hydrochloride): 7.88%
- Change In Mass (%) ([1]; Relative Humidity 55.9%, hydrochloride): 8.36%
- Change In Mass (%) ([1]; Relative Humidity 59.0%, hydrochloride): 8.92%
- Change In Mass (%) ([1]; Relative Humidity 62.1%, hydrochloride): 9.46%
- Change In Mass (%) ([1]; Relative Humidity 65.2%, hydrochloride): 10.10%
- Change In Mass (%) ([1]; Relative Humidity 68.3%, hydrochloride): 10.85%
- Change In Mass (%) ([1]; Relative Humidity 71.4%, hydrochloride): 11.69%
- Change In Mass (%) ([1]; Relative Humidity 74.5%, hydrochloride): 12.67%
- Change In Mass (%) ([1]; Relative Humidity 77.6%, hydrochloride): 14.01%
- Change In Mass (%) ([1]; Relative Humidity 80.7%, hydrochloride): 15.76%
- Change In Mass (%) ([1]; Relative Humidity 83.8%, hydrochloride): 18.09%
- Change In Mass (%) ([1]; Relative Humidity 86.9%): 21.51%
- Change In Mass (%) ([1]; Relative Humidity 90.0%, hydrochloride): 26.66%
- hygroscopicity (in words) ([1]; listed as nemorubicin amorphous, hydrochloride): highly hygroscopic
